What all share (assay): NCI tumour cell line growth inhibition, 48 h
For assay [1], the system named is SK-OV-3 ovarian.
The test system of assay [2] is HOP-62 NSCLC.
The test system of assay [3] is SN12C renal.
The subject of assay [4] is KM20L2 colon.
In assay [5] the test system is DMS 114 small cell lung.
Assay [6] has as its system SK-MEL-5 melanoma.
Assay [7] relates to EKVX NSCLC.
In assay [8] the test system is NCI-H226 lung.
The subject of assay [9] is TK-10 renal.
In assay [10] the test system is SK-MEL-2 melanoma.

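Where inhibition never reached the appropriate level, the endpoint shown equals the highest concentration tested. Otherwise, values were interpolated linearly from a five-concentration, 48-hour dose response in 96-well plates. TGI denotes the concentration required for complete inhibition of growth.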

In the case of `Nc1ccccc1S(=O)(=O)c1ccccc1`, the TGI in [1], in assay [2], in assay [3], in [4], in [5] and in [6] was above 100 µM throughout. Moreover, the TGI in assay [7], in assay [8], in assay [9] and in assay [10] was above 100 µM throughout.
For the molecule `CNC(=O)OCc1c(CO)nc(SC)n1C`, the TGI in assay [1], in [2], in assay [3], in [4], in [5] and in assay [6] was above 100 µM in each case. Further, the TGI in assay [7], in assay [8] and in assay [10] was above 100 µM each time.
As to `O=C(OCN1C(=O)C2C3C=CC(C2C1=O)C1C2C(=O)N(COC(=O)C4CCCN4)C(=O)C2C31)C1CCCN1` (centres undefined), the TGI is above 100 µM in [1]; above 100 µM in assay [2]; above 100 µM in [3]; above 100 µM in assay [4]; above 60.6 µM in assay [5]; above 100 µM in assay [6]. Besides, the TGI in assay [7] was above 100 µM; in assay [8] it was above 100 µM; in assay [9], above 100 µM; in assay [10], above 31.6 µM.
In the case of `[N-]=[N+]=CC(=O)c1ccccc1C#CCCc1ccccc1`, the TGI in assay [1] was 66.7 µM; in [2], above 100 µM; in [3], above 100 µM; in [4], 62.7 µM; in [5], 23.6 µM; in assay [6], 32.2 µM. Moreover, the TGI was 75.5 µM in [7], 98.3 µM in [8], above 100 µM in assay [9] and 79.7 µM in assay [10].

The values are drawn from PubChem BioAssay (NCI).
